Measured values taken from patent US6352722B1, “Derivatized carbohydrates, compositions comprised thereof and methods of use thereof” (Quadrant Holdings Cambridge Limited, priority 1997, dated 2002).

Legend:
[1] = Glass formation, crystallization and glass stability above ambient temperature; assay type: physicochemical
Source text: In the usual process to form a vitreous glass, a high temperature melt is quenched (cooled quickly) to solidify without crystallization to a vitreous glass. Most glassy materials can theoretically quench to a vitreous glass, however, factors such as low melt viscosity, thermodynamically favorable crystalline states and thermal degradation, limit their potential to form vitreous rather than crystalline solids.
(§1) The carbohydrate derivatives were routinely synthesized by standard esterification of the carbohydrate with the chloride of the desired hydrocarbon side chain under anhydrous conditions and the resulting derivatives purified by standard techniques of solvent extraction and re-crystallization. For example, trehalose octa-3,3-dimethylbutyrate was synthesized by reacting 3,3,-dimethylbutyroyl chloride with trehalose in anhydrous pyridine, followed by extraction with ether, hydrochloric acid, potassium carbonate solution and water and finally re-crystallized twice from alcohol to yield colorless, needle-like crystals (˜80% yield) of m.pt 138-140° C., αD 112°. Trehalose hexa-3,3-dimethylbutyrate (THEX) can be prepared by protecting the 6,6′-hydroxy group of trehalose with a bulky group such as trityl or t-butyldiphenylsilyl, for example by heating trehalose and trityl chloride in pyridine. The 6,6′-ditrityltrehalose can be acylated with 3,3-dimethylbutyroyl chloride in pyridine to give 6,6′-ditritylhexa-3,3-dimethylbutyryltrehalose. The trityl group can be removed by strong acid, for example hydrogen bromide in acetic acid, to give THEX. TACT can be prepared by acylating THEX with acetic anhydride in pyridine. Suitable work-up yields the HDC in crystalline form. The physical characteristics, melting points and glass transition temperatures (Tg, ° C.) of selected carbohydrate derivatives are shown in Tables 1-5.
This unusual property of branched-chain derivatives enables more hydrophobic derivatives (compared to the acetates) to be prepared, which permits further reduction of drug release rates for longer term applications.

[2] = Tg of HDC formulations with incorporated active; assay type: physicochemical
Source text: (§2) The model hydrophilic drug, diltiazem hydrochloride (“hydrophilic active”), was incorporated (10% loading) into solid vehicles of the single straight chain HDC trehalose octaacetate or the branched chain HDCs trehalose octa-3,3, dimethylbutyrate and trehalose octapivalate as well as composite formulations (1:1 ratio) of the two branched-chain HDCs or the straight chain HDC trehalose octaacetate and the branched chain HDC trehalose octapivalate, by quenching from the melt. Release of the active from the HDC solid dose delivery vehicle was assessed using an in vitro USP (volume 23) type 2 dissolution test in saline containing 0.1% sodium cholate as the dissolution medium.
The model hydrophilic drug diltiazem hydrochloride was also incorporated (5% loading) into solid vehicles of the single branched chain HDCs trehalose diisobutyrate hexaacetate and trehalose octapivalate and composite formulations (1:1 ratio) of the two branched-chain HDCs by solvent removal by rotary evaporation, in a Buchi Rotavapor R-124, of a 20% solution of active plus HDCs in a dichloromethane: acetone mixed solvent (9:1 ratio) system. […] (trehalose octapivalate) of the single branched-chain HDC formulations of active.
(§3) The model hydrophobic steroid fluticasone propionate (“hydrophobic active”) was incorporated (5% loading) into solid vehicles of the single straight chain HDC trehalose octaacetate or the branched chain HDCs trehalose octa-3,3, dimethylbutyrate and trehalose dipropanoate hexaacetate and composite formulations (1:1 ratio) of the two branched-chain HDCs by either quenching from the melt or solvent evaporation by rotary evaporation. Melt incorporation was carried out by melting the HDCs at 150-170° C. and dissolving the active in the melt at 120-140° C. Rotary evaporation was carried out using a Buchi Rotavapor R-124 using a 20% solution of active plus HDCs in a dichloromethane: acetone mixed solvent (9:1 ratio) system. The hydrophobic active was also incorporated into solid vehicles of the branched chain HDCs, trehalose octapivalate, trehalose diisobutyrate hexaacetate and lactose isobutyrate heptaacetate, either by quenching from the melt or solvent evaporation by rotary evaporation. Release of hydrophobic active from the HDC solid dose delivery vehicle was assessed using an in vitro USP (volume 23) type 2 dissolution test in saline containing 0.1% sodium cholate as the dissolution medium.
(§4) As an example of a polypeptide drug, the polypeptide hormone insulin (“polypeptide active”) was incorporated (10% loading) into solid vehicles of the single branched chain HDCs trehalose diisobutyrate hexaacetate and trehalose hexapivalate and composite formulations of the branched chain HDCs trehalose diisobutyrate hexaacetate and trehalose octapivalate (8:1 ratio) by solvent removal by lyophilization of a 20% solution of insulin plus HDCs in dimethylsulfoxide. […] Release of active from the HDC solid dose delivery vehicle was assessed using an in vitro USP (volume 23) type 2 dissolution test in saline containing 0.1% sodium cholate as the dissolution medium.

[3] = Glass transition temperature (Tg) of derivatized carbohydrates, by DSC; assay type: physicochemical
Source text: The reaction product can be characterized structurally by methods known in the art, including, but not limited to, nuclear magnetic resonance spectroscopy (NMR) and its material science properties characterized by differential scanning calorimetry (DSC). The characteristic melting points and Tgs (glass transition temperatures) for the derivatized carbohydrates can also be determined by DSC and other methods known in the art.
as §1

[4] = Devitrification / glass stability when immersed in aqueous media; settings: immersed in saline medium at 37° C.
[5] = In vitro USP (volume 23) type 2 dissolution test, release of active from HDC solid vehicle; assay type: physicochemical; settings: saline with 0.1% sodium cholate; for release of fluticasone propionate from single HDC formulation: compared to trehalose octaacetate formulation Q1 (FIG. 3)
Source text: as §2, §3, §4

[6] = hydrophobic active (fluticasone propionate, 5% loading) incorporated
[7] = derivatized carbohydrate alone, Tables 1-4
[8] = derivatized carbohydrate without active, Table 5

| Compound | Tg (° C.) with active incorporated [2, 6] | Tg(° C.) [3, 7] | Tg(° C.) [3, 8] | other results |
| --- | --- | --- | --- | --- |
| CC(C)C(=O)OCC1OC(OC2C(COC(=O)C(C)C)OC(OC(=O)C(C)C)C(OC(=O)C(C)C)C2OC(=O)C(C)C)C(OC(=O)C(C)C)C(OC(=O)C(C)C)C1OC(=O)C(C)C (stereo not drawn) [Cellobiose octaisobutyrate] | – | – | – | COMMENT: glass formation / glass stability above ambient temperature [1]: very hard to quench to glass |
| CC(=O)OC[C@H]1O[C@@H](O[C@H]2[C@H](OC(C)=O)[C@@H](OC(C)=O)C(OC(=O)C(C)C)O[C@@H]2COC(C)=O)[C@H](OC(C)=O)[C@@H](OC(C)=O)[C@H]1OC(C)=O (stereo partly drawn) [Lactose isobutyrate heptaacetate] | 59 °C | 60 °C | 60 °C | crystallization from solution ([1]; blend: small amount of the corresponding anomer added): fails to crystallize; crystallization from solution ([1]; pure α,β anomers): crystallize from solution |
| CC(=O)OC[C@H]1O[C@H](O[C@H]2O[C@H](COC(C)=O)[C@@H](OC(=O)CC(C)(C)C)[C@H](OC(=O)CC(C)(C)C)[C@H]2OC(=O)CC(C)(C)C)[C@H](OC(=O)CC(C)(C)C)[C@@H](OC(=O)CC(C)(C)C)[C@@H]1OC(=O)CC(C)(C)C [Trehalose 6,6′-diaacetate hexa-3,3-dimethylbutyrate] | – | 44 °C | – | stability of the glassy state [4]: the glass stability is reduced |
| CC(C)(C)CC(=O)OC[C@H]1O[C@H](O[C@H]2O[C@H](COC(=O)CC(C)(C)C)[C@@H](OC(=O)CC(C)(C)C)[C@H](OC(=O)CC(C)(C)C)[C@H]2OC(=O)CC(C)(C)C)[C@H](OC(=O)CC(C)(C)C)[C@@H](OC(=O)CC(C)(C)C)[C@@H]1OC(=O)CC(C)(C)C [Trehalose octa-3,3-dimethylbutyrate] | 45 °C | 42 °C | 46 °C | release of diltiazem hydrochloride (DZM) from single HDC formulation ([5]; 10% loading, compared to trehalose octaacetate formulation (FIG. 1)): much slower release; release of fluticasone propionate from single HDC formulation [5]: much slower release |
| CC(=O)OCC1OC(OC2OC(COC(C)=O)C(OC(C)=O)C(OC(C)=O)C2OC(C)=O)C(OC(C)=O)C(OC(C)=O)C1OC(C)=O (stereo not drawn) [Trehalose octaacetate, reference compound] | 53 °C | 55 °C | 50 °C | release of active (insulin) ([5]; after 1 hour in the dissolution assay): 88% |
| Trehalose dipropanoate hexaacetate | 44 °C | – | 38 °C | – |
| Trehalose hexa-3,3-dimethylbutyrate | – | 64 °C | – | stability of the glassy state [4]: stable in the glassy state |
| Trehalose hexapivalate | – | 86 °C | 86 °C | Tg (° C.) with active incorporated ([2]; polypeptide active (insulin, 10% loading) incorporated by lyophilization from dimethylsulfoxide): 76.5 °C |

Further lines, with some results ahead:

| Tg (° C.) with active incorporated [2, 6] | Tg(° C.) [3, 7] | Tg(° C.) [3, 8] | Compound | other results |
| --- | --- | --- | --- | --- |
| 80 °C | 81 °C | 80 °C | CC(C)(C)C(=O)OC[C@H]1O[C@H](O[C@H]2O[C@H](COC(=O)C(C)(C)C)[C@@H](OC(=O)C(C)(C)C)[C@H](OC(=O)C(C)(C)C)[C@H]2OC(=O)C(C)(C)C)[C@H](OC(=O)C(C)(C)C)[C@@H](OC(=O)C(C)(C)C)[C@@H]1OC(=O)C(C)(C)C [Trehalose octapivalate] | Tg (° C.) with active incorporated ([2]; hydrophilic active (diltiazem hydrochloride) incorporated): 83.7 °C; release of fluticasone propionate from single HDC formulation [5]: much slower release |
| – | 65 °C | – | CC(=O)OCC1OC(OC2C(COC(C)=O)OC(OC(C)=O)C(OC(C)=O)C2OC(C)=O)C(OC(C)=O)C(OC(C)=O)C1OC(C)=O (stereo not drawn) [α-Cellobiose octaacetate, reference compound] | COMMENT: glass formation / glass stability above ambient temperature [1]: Poor glass former |
| – | 53 °C | – | CC(=O)OCC1OC(OC2C(COC(C)=O)OC(OC(C)=O)C(OC(C)=O)C2OC(C)=O)C(OC(C)=O)C(OC(C)=O)C1OC(C)=O (stereo not drawn) [β-Cellobiose octaacetate, reference compound] | COMMENT: glass formation / glass stability above ambient temperature [1]: Good glass former |
